For 4 compounds, IC50 results are on record in BindingDB's records for doi:10.3109/14756366.2010.529807 (University of Ioannina, 2011).

This test concerns the target T1, Seed linoleate 13S-lipoxygenase-1 (Glycine max, UniProt P08170).
T1 sequence (P08170 whole entry): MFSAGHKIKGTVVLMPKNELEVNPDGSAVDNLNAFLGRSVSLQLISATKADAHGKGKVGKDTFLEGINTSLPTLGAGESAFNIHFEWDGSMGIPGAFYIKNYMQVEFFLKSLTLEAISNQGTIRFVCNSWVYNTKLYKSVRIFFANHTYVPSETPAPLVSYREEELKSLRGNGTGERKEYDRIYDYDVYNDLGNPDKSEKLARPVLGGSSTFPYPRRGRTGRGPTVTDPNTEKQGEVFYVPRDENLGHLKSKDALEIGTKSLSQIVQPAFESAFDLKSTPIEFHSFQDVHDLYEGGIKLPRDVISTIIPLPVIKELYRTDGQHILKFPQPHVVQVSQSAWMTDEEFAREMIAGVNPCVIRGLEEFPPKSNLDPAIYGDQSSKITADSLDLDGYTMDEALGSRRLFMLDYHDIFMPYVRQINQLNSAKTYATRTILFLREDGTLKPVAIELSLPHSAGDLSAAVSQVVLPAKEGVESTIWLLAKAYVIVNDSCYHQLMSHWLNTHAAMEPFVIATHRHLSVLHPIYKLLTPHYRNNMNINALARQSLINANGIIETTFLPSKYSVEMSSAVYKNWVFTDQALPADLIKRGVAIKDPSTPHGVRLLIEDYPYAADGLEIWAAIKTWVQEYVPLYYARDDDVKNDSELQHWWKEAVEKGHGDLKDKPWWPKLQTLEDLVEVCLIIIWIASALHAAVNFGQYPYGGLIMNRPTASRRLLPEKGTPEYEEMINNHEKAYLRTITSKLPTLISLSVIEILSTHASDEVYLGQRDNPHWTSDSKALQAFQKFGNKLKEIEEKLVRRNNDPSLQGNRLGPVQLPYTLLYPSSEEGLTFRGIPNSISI
Description: LOX Activity Assay. To be noted: 25 °C. The procedure: Enzyme activity was monitored by UV analysis. 0.05 cm^3 of enzyme solution was added to a cuvette containing 2 cm^3 linoleic acid solution and the appropriate amounts of buffer and inhibitor solutions in thermostatic water bath at 25°C. There was no pre-incubation time of the enzyme with inhibitor solution. The activity of the enzyme was determined by monitoring the increase in the absorption caused by the oxidation of linoleic acid at 234 nm and 25°C (ε = 25 000 M^−1 cm^−1). One standard solution of complexes in DMSO (10^-2 M) was used for theinhibition activity experiments (three sets). In this case, the substrate concentration was kept constant (0.3 mM), while the amounts of buffer and inhibitor solutions varied according to the inhibitor final concentration needed(0.5-30 μM or 0.15-9 μL from standard solutions). The total experiment volume was 3 cm^3.

Compound `c1ccc([PH]([Au][S]c2nc3ccccc3s2)(c2ccccc2)c2ccccc2)cc1` [[Au(tpp)(mbzt)] (3)] yielded an IC50 of 39.4 µM.
Then `Clc1ccc2sc([S][Au][PH](c3ccccc3)(c3ccccc3)c3ccccc3)nc2c1` [[Au(tpp)(Clmbzt)] (4)], with 16 µM; and `[Cl][Au][PH](c1ccccc1)(c1ccccc1)c1ccccc1` [[Au(tpp)Cl] (1)], with 1.2 µM.
On to `c1ccc([PH]([Au][S]C2=NCCS2)(c2ccccc2)c2ccccc2)cc1` [[Au(tpp)(mtzd)] (2)], for which the IC50 came to 18.8 µM.

One may read the IC50 as the concentration needed to halve the response being measured. The low end stands for greater potency in that assay, the high end for weaker potency in that assay.
